This note sets out measurements from US10538555B2, “Macrocyclic inhibitors of the PD-1/PD-L1 and CD80(B7-1)/PD-L1 protein/protein interactions” (BRISTOL-MYERS SQUIBB COMPANY, priority 2014, dated 2020).

Where a SMILES comes first, the peptide text is derived from it. Bridges are numbered along the chain shown (N, C = ends). [ ]: non-standard residue; d: D form. Phe(3,4,5-F3) = N[C@@H](Cc1cc(F)c(F)c(F)c1)C(=O)O; d(cisHyp) = O=C(O)[C@H]1C[C@@H](O)CN1; NMeF = CN[C@@H](Cc1ccccc1)C(=O)O; NMeNle = CCCC[C@H](NC)C(=O)O; Orn = NCCC[C@H](N)C(=O)O; Dab = NCC[C@H](N)C(=O)O; Dap = NC[C@H](N)C(=O)O

The target in this test is T1, Human PD-L1/PD-1 (Homo sapiens, UniProt Q9NZQ7).
T1 construct: TVMV protease cleavage site (C); made in house; host or cells: HEK293T cells
T1 sequence (Q9NZQ7 with tags, fused parts or gaps): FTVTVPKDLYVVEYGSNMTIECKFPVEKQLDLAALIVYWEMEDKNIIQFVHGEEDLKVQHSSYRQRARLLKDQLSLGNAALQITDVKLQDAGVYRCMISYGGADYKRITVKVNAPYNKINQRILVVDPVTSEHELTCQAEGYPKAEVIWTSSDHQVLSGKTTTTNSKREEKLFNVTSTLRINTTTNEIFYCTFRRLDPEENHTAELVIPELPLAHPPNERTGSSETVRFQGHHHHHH
Put plainly: HTRF Human PD-L1/PD-1 binding assay (PD-1-Ig/PD-L1-His). Particulars: PD-L1-His 10 nM, PD-1-Ig 20 nM; class symbol; read-out: HTRF Human PD-L1/PD-1 Binding Assay IC50 Range. The method in brief:
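HTRF competition using HEK293T-expressed human PD-1(25-167)-Ig at 20 nM and PD-L1(18-239)-His at 10 nM, compound incubated first with PD-L1 for 15 min, then with PD-1 for 15 min. Signal read as 665/620 nm ratio 30 min after adding Eu anti-Ig and APC anti-His antibodies.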
A general note: In TR-FRET formats the signal depends on donor and acceptor labels being close together.

In the case of `CCCC[C@H]1C(=O)N2C[C@H](O)C[C@@H]2C(=O)N[C@@H](CC(=O)O)C(=O)N[C@@H](C(C)C)C(=O)N(C)[C@@H](Cc2ccccc2)C(=O)N[C@@H](Cc2ccc(O)cc2)C(=O)N2C[C@H](O)C[C@@H]2C(=O)N[C@@H](Cc2c[nH]c3ccccc23)C(=O)N[C@@H](Cc2ccc(O)cc2)C(=O)N[C@@H](CCCCN)C(=O)N[C@H](C(=O)NCC(N)=O)CSCC(=O)N[C@@H](Cc2cc(F)c(F)c(F)c2)C(=O)N(C)[C@@H](Cc2ccccc2)C(=O)N1C` [Example 9322] ({CH2CO}-[Phe(3,4,5-F3)][NMeF][NMeNle][d(cisHyp)]DV[NMeF]Y[d(cisHyp)]WYKCG-NH2; thioether N-13), the IC50 lay within 1 to 9.9 nM. The result for `CCCC[C@H]1C(=O)N2C[C@H](O)C[C@@H]2C(=O)N[C@@H](CC(=O)O)C(=O)N[C@@H](C(C)C)C(=O)N(C)[C@@H](Cc2ccccc2)C(=O)N[C@@H](Cc2ccc(O)cc2)C(=O)N2C[C@H](O)C[C@@H]2C(=O)N[C@@H](Cc2c[nH]c3ccccc23)C(=O)N[C@@H](Cc2ccc(O)cc2)C(=O)N[C@@H](CCCN)C(=O)N[C@H](C(=O)NCC(N)=O)CSCC(=O)N[C@@H](Cc2cc(F)c(F)c(F)c2)C(=O)N(C)[C@@H](Cc2ccccc2)C(=O)N1C` [Example 9323] ({CH2CO}-[Phe(3,4,5-F3)][NMeF][NMeNle][d(cisHyp)]DV[NMeF]Y[d(cisHyp)]WY[Orn]CG-NH2; thioether N-13) reads 1 to 9.9 nM; that for `CCCC[C@H]1C(=O)N2C[C@H](O)C[C@@H]2C(=O)N[C@@H](CC(=O)O)C(=O)N[C@@H](C(C)C)C(=O)N(C)[C@@H](Cc2ccccc2)C(=O)N[C@@H](Cc2ccc(O)cc2)C(=O)N2C[C@H](O)C[C@@H]2C(=O)N[C@@H](Cc2c[nH]c3ccccc23)C(=O)N[C@@H](Cc2ccc(O)cc2)C(=O)N[C@@H](CCN)C(=O)N[C@H](C(=O)NCC(N)=O)CSCC(=O)N[C@@H](Cc2cc(F)c(F)c(F)c2)C(=O)N(C)[C@@H](Cc2ccccc2)C(=O)N1C` [Example 9324] ({CH2CO}-[Phe(3,4,5-F3)][NMeF][NMeNle][d(cisHyp)]DV[NMeF]Y[d(cisHyp)]WY[Dab]CG-NH2; thioether N-13), 1 to 9.9 nM. The result for `CCCC[C@H]1C(=O)N2C[C@H](O)C[C@@H]2C(=O)N[C@@H](CC(=O)O)C(=O)N[C@@H](C(C)C)C(=O)N(C)[C@@H](Cc2ccccc2)C(=O)N[C@@H](Cc2ccc(O)cc2)C(=O)N2C[C@H](O)C[C@@H]2C(=O)N[C@@H](Cc2c[nH]c3ccccc23)C(=O)N[C@@H](Cc2ccc(O)cc2)C(=O)N[C@@H](CN)C(=O)N[C@H](C(=O)NCC(N)=O)CSCC(=O)N[C@@H](Cc2cc(F)c(F)c(F)c2)C(=O)N(C)[C@@H](Cc2ccccc2)C(=O)N1C` [Example 9325] ({CH2CO}-[Phe(3,4,5-F3)][NMeF][NMeNle][d(cisHyp)]DV[NMeF]Y[d(cisHyp)]WY[Dap]CG-NH2; thioether N-13) reads 1 to 9.9 nM; that for `CCCC[C@H]1C(=O)N2C[C@H](O)C[C@@H]2C(=O)N[C@@H](CC(=O)O)C(=O)N[C@@H](C(C)C)C(=O)N(C)[C@@H](Cc2ccccc2)C(=O)N[C@@H](Cc2ccc(O)cc2)C(=O)N2C[C@H](O)C[C@@H]2C(=O)N[C@@H](Cc2c[nH]c3ccccc23)C(=O)N[C@@H](Cc2ccc(O)cc2)C(=O)N[C@@H](CCC(=O)O)C(=O)N[C@H](C(=O)NCC(N)=O)CSCC(=O)N[C@@H](Cc2cc(F)c(F)c(F)c2)C(=O)N(C)[C@@H](Cc2ccccc2)C(=O)N1C` [Example 9326] ({CH2CO}-[Phe(3,4,5-F3)][NMeF][NMeNle][d(cisHyp)]DV[NMeF]Y[d(cisHyp)]WYECG-NH2; thioether N-13), 10 to 99.9 nM; that for `CCCC[C@H]1C(=O)N2C[C@H](O)C[C@@H]2C(=O)N[C@@H](CC(=O)O)C(=O)N[C@@H](C(C)C)C(=O)N(C)[C@@H](Cc2ccccc2)C(=O)N[C@@H](Cc2ccc(O)cc2)C(=O)N2C[C@H](O)C[C@@H]2C(=O)N[C@@H](Cc2c[nH]c3ccccc23)C(=O)N[C@@H](Cc2ccc(O)cc2)C(=O)N[C@@H](CC(=O)O)C(=O)N[C@H](C(=O)NCC(N)=O)CSCC(=O)N[C@@H](Cc2cc(F)c(F)c(F)c2)C(=O)N(C)[C@@H](Cc2ccccc2)C(=O)N1C` [Example 9327] ({CH2CO}-[Phe(3,4,5-F3)][NMeF][NMeNle][d(cisHyp)]DV[NMeF]Y[d(cisHyp)]WYDCG-NH2; thioether N-13), 10 to 99.9 nM. Then `CCCC[C@H]1C(=O)N2C[C@H](O)C[C@@H]2C(=O)N[C@@H](CC(=O)O)C(=O)N[C@@H](C(C)C)C(=O)N(C)[C@@H](Cc2ccccc2)C(=O)N[C@@H](Cc2ccc(O)cc2)C(=O)N2C[C@H](O)C[C@@H]2C(=O)N[C@@H](Cc2c[nH]c3ccccc23)C(=O)N[C@@H](Cc2ccc(O)cc2)C(=O)N[C@@H](CCC(N)=O)C(=O)N[C@H](C(=O)NCC(N)=O)CSCC(=O)N[C@@H](Cc2cc(F)c(F)c(F)c2)C(=O)N(C)[C@@H](Cc2ccccc2)C(=O)N1C` [Example 9328] ({CH2CO}-[Phe(3,4,5-F3)][NMeF][NMeNle][d(cisHyp)]DV[NMeF]Y[d(cisHyp)]WYQCG-NH2; thioether N-13), with 10 to 99.9 nM; and `CCCC[C@H]1C(=O)N2C[C@H](O)C[C@@H]2C(=O)N[C@@H](CC(=O)O)C(=O)N[C@@H](C(C)C)C(=O)N(C)[C@@H](Cc2ccccc2)C(=O)N[C@@H](Cc2ccc(O)cc2)C(=O)N2C[C@H](O)C[C@@H]2C(=O)N[C@@H](Cc2c[nH]c3ccccc23)C(=O)N[C@@H](Cc2ccc(O)cc2)C(=O)N[C@@H](CC(N)=O)C(=O)N[C@H](C(=O)NCC(N)=O)CSCC(=O)N[C@@H](Cc2cc(F)c(F)c(F)c2)C(=O)N(C)[C@@H](Cc2ccccc2)C(=O)N1C` [Example 9329] ({CH2CO}-[Phe(3,4,5-F3)][NMeF][NMeNle][d(cisHyp)]DV[NMeF]Y[d(cisHyp)]WYNCG-NH2; thioether N-13), with 1 to 9.9 nM; and `CCCC[C@H]1C(=O)N2C[C@H](O)C[C@@H]2C(=O)N[C@@H](CC(=O)O)C(=O)N[C@@H](C(C)C)C(=O)N(C)[C@@H](Cc2ccccc2)C(=O)N[C@@H](CCC(=O)O)C(=O)N2C[C@H](O)C[C@@H]2C(=O)N[C@@H](Cc2c[nH]c3ccccc23)C(=O)N[C@@H](Cc2ccc(O)cc2)C(=O)N[C@@H](CC(C)C)C(=O)N[C@H](C(=O)NCC(N)=O)CSCC(=O)N[C@@H](Cc2cc(F)c(F)c(F)c2)C(=O)N(C)[C@@H](Cc2ccccc2)C(=O)N1C` [Example 9330] ({CH2CO}-[Phe(3,4,5-F3)][NMeF][NMeNle][d(cisHyp)]DV[NMeF]E[d(cisHyp)]WYLCG-NH2; thioether N-13), with 10 to 99.9 nM. Turning to `CCCC[C@H]1C(=O)N2C[C@H](O)C[C@@H]2C(=O)N[C@@H](CC(=O)O)C(=O)N[C@@H](C(C)C)C(=O)N(C)[C@@H](Cc2ccccc2)C(=O)N[C@@H](CCC(=O)O)C(=O)N2C[C@H](O)C[C@@H]2C(=O)N[C@@H](Cc2c[nH]c3ccccc23)C(=O)N[C@@H](Cc2ccc(O)cc2)C(=O)N[C@@H](CCCCN)C(=O)N[C@H](C(=O)NCC(N)=O)CSCC(=O)N[C@@H](Cc2cc(F)c(F)c(F)c2)C(=O)N(C)[C@@H](Cc2ccccc2)C(=O)N1C` [Example 9331] ({CH2CO}-[Phe(3,4,5-F3)][NMeF][NMeNle][d(cisHyp)]DV[NMeF]E[d(cisHyp)]WYKCG-NH2; thioether N-13), the IC50 lay within 1 to 9.9 nM. The result for `CCCC[C@H]1C(=O)N2C[C@H](O)C[C@@H]2C(=O)N[C@@H](CC(=O)O)C(=O)N[C@@H](C(C)C)C(=O)N(C)[C@@H](Cc2ccccc2)C(=O)N[C@@H](CCC(=O)O)C(=O)N2C[C@H](O)C[C@@H]2C(=O)N[C@@H](Cc2c[nH]c3ccccc23)C(=O)N[C@@H](Cc2ccc(O)cc2)C(=O)N[C@@H](CCCN)C(=O)N[C@H](C(=O)NCC(N)=O)CSCC(=O)N[C@@H](Cc2cc(F)c(F)c(F)c2)C(=O)N(C)[C@@H](Cc2ccccc2)C(=O)N1C` [Example 9332] ({CH2CO}-[Phe(3,4,5-F3)][NMeF][NMeNle][d(cisHyp)]DV[NMeF]E[d(cisHyp)]WY[Orn]CG-NH2; thioether N-13) reads 10 to 99.9 nM. Then `CCCC[C@H]1C(=O)N2C[C@H](O)C[C@@H]2C(=O)N[C@@H](CC(=O)O)C(=O)N[C@@H](C(C)C)C(=O)N(C)[C@@H](Cc2ccccc2)C(=O)N[C@@H](CCC(=O)O)C(=O)N2C[C@H](O)C[C@@H]2C(=O)N[C@@H](Cc2c[nH]c3ccccc23)C(=O)N[C@@H](Cc2ccc(O)cc2)C(=O)N[C@@H](CCN)C(=O)N[C@H](C(=O)NCC(N)=O)CSCC(=O)N[C@@H](Cc2cc(F)c(F)c(F)c2)C(=O)N(C)[C@@H](Cc2ccccc2)C(=O)N1C` [Example 9333] ({CH2CO}-[Phe(3,4,5-F3)][NMeF][NMeNle][d(cisHyp)]DV[NMeF]E[d(cisHyp)]WY[Dab]CG-NH2; thioether N-13), with 10 to 99.9 nM; and `CCCC[C@H]1C(=O)N2C[C@H](O)C[C@@H]2C(=O)N[C@@H](CC(=O)O)C(=O)N[C@@H](C(C)C)C(=O)N(C)[C@@H](Cc2ccccc2)C(=O)N[C@@H](CCC(=O)O)C(=O)N2C[C@H](O)C[C@@H]2C(=O)N[C@@H](Cc2c[nH]c3ccccc23)C(=O)N[C@@H](Cc2ccc(O)cc2)C(=O)N[C@@H](CN)C(=O)N[C@H](C(=O)NCC(N)=O)CSCC(=O)N[C@@H](Cc2cc(F)c(F)c(F)c2)C(=O)N(C)[C@@H](Cc2ccccc2)C(=O)N1C` [Example 9334] ({CH2CO}-[Phe(3,4,5-F3)][NMeF][NMeNle][d(cisHyp)]DV[NMeF]E[d(cisHyp)]WY[Dap]CG-NH2; thioether N-13), with 10 to 99.9 nM. The result for `CCCC[C@H]1C(=O)N2C[C@H](O)C[C@@H]2C(=O)N[C@@H](CC(=O)O)C(=O)N[C@@H](C(C)C)C(=O)N(C)[C@@H](Cc2ccccc2)C(=O)N[C@@H](CCC(=O)O)C(=O)N2C[C@H](O)C[C@@H]2C(=O)N[C@@H](Cc2c[nH]c3ccccc23)C(=O)N[C@@H](Cc2ccc(O)cc2)C(=O)N[C@@H](CCC(=O)O)C(=O)N[C@H](C(=O)NCC(N)=O)CSCC(=O)N[C@@H](Cc2cc(F)c(F)c(F)c2)C(=O)N(C)[C@@H](Cc2ccccc2)C(=O)N1C` [Example 9335] ({CH2CO}-[Phe(3,4,5-F3)][NMeF][NMeNle][d(cisHyp)]DV[NMeF]E[d(cisHyp)]WYECG-NH2; thioether N-13) reads 10 to 99.9 nM.
